Key:
NLRP3 [1] = biological target: T1, NLRP3 (Homo sapiens, UniProt Q96P20); assay: Human whole blood IL1β release assay; format: cell-based; settings: LPS 1 μg/ml, nigericin 10 μM, IL-1β AlphaLisa, 10 μM top dose (Example 2: top dose of 30 μM), read-out: HWB IC50
Experimental: For systemic delivery, the ability to inhibit NLRP3 when the compounds are present within the bloodstream is of great importance. For this reason, the NLRP3 inhibitory activity of a number of compounds in human whole blood was investigated in accordance with the following protocol.
Human whole blood in sodium-heparin or lithium-heparin tubes was obtained from healthy donors from a volunteer donor panel. • 1. Plate out 80 μl of whole blood containing 1 μg/ml of LPS in 96-well, clear bottom cell culture plate (Corning #3585) • 2. Add 10 μl compound (8 points half-log dilution with 10 μM top dose, unless stated otherwise) or vehicle (DMSO 0.1% FAC) to the appropriate wells • 3. Incubate for 3 hrs at 37° C., 5% CO2 • 4. Add 10 μl nigericin (Sigma #N7143) (10 μM FAC) to all wells • 5. Incubate for 1 hr at 37° C., 5% CO2 • 6. At the end of the incubation period, spin plates at 300×g for 5 mins to pellet cells and remove 20 μl of supernatant and add to 96-well v-bottom plates for IL-1β analysis (note: these plates containing the supernatants can be stored at −80° C. to be analysed at a later date) • 7. IL-1β was measured according to the manufacturer protocol (Perkin Elmer-AlphaLisa IL-1 Kit AL220F-5000) • 8. IC50 data is fitted to a non-linear regression equation (log inhibitor vs response-variable slope 4-parameters)

NLRP3 [2] = biological target: T1, NLRP3; assay: THP-1 cells pyroptosis assay; format: cell-based; set-up: Seed THP-1 cells (25,000 cells/well) containing 1.0 μg/ml LPS; host or cells: THP-1; settings: LPS 1.0 μg/ml, nigericin 5 μM, resazurin readout, 10 μM top dose (Example 2: top dose of 30 μM)
In short: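 Pyroptosis induced by 5 μM nigericin (1 h) in LPS-primed (1 μg/ml) THP-1 cells, 25,000/well in serum-free RPMI, after 3 h compound pre-treatment (8 points, 10 μM top unless stated). Surviving cells measured with 100 μM resazurin, Ex 560/Em 590; IC50 via variable-slope 4-parameter regression.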

T1 sequence (Q96P20 whole entry): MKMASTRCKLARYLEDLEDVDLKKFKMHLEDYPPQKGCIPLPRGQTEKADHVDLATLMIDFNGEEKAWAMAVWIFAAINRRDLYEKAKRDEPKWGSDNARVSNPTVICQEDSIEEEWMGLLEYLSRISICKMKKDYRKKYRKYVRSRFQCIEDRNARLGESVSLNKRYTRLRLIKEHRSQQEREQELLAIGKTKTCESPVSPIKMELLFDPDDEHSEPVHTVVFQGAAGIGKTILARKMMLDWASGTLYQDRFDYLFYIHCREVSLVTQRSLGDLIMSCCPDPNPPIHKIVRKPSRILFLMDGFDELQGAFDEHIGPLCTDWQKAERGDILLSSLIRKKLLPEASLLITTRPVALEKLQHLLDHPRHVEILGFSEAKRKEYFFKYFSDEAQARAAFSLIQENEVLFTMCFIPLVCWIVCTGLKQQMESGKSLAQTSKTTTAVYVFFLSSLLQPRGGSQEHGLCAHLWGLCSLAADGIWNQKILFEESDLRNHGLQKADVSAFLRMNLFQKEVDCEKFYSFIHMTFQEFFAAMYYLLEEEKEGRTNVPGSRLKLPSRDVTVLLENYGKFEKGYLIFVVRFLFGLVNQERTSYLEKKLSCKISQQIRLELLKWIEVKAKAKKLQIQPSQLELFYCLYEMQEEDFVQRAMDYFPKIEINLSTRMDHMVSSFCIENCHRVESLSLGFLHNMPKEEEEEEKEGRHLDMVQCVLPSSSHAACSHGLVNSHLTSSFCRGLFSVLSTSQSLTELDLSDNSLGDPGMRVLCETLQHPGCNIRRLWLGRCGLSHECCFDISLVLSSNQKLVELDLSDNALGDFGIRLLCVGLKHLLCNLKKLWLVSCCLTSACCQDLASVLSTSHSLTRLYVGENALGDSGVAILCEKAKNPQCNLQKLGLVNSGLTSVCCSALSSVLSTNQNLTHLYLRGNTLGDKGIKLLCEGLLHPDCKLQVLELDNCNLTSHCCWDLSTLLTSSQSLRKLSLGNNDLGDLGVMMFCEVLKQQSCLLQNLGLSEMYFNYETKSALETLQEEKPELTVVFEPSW

Row | Structure (SMILES) | IC50 (NLRP3 [1]) | IC50 (NLRP3 [2])
1 | O=S(=O)(NCC1CCCCN1)c1nnc(Nc2c3c(cc4c2CCC4)CCC3)[nH]1 (stereo not drawn) [Example 132, 5-((1,2,3,5,6,7-hexahydro-s-indacen-4-yl)amino)-N-(piperidin-2-ylmethyl)-4H-1,2,4-triazole-3-sulfonamide] | ≤ 10 µM | ≤ 0.5 µM
2 | O=S(=O)(c1nnc(Nc2c3c(cc4c2CCC4)CCC3)[nH]1)N1CC(N2CCCCC2)C1 [Example 133, N-(1,2,3,5,6,7-hexahydro-s-indacen-4-yl)-5-((3-(piperidin-1-yl)azetidin-1-yl)sulfonyl)-4H-1,2,4-triazol-3-amine] | ≤ 10 µM | ≤ 0.5 µM
3 | O=S(=O)(c1nnc(Nc2c3c(cc4c2CCC4)CCC3)[nH]1)N1CC(N2CCCC2)C1 [Example 136, N-(1,2,3,5,6,7-hexahydro-s-indacen-4-yl)-5-((3-(pyrrolidin-1-yl)azetidin-1-yl)sulfonyl)-4H-1,2,4-triazol-3-amine] | ≤ 5 µM | ≤ 0.5 µM
4 | CN1CC2(C1)CN(S(=O)(=O)c1nnc(Nc3c4c(cc5c3CCC5)CCC4)[nH]1)C2 [Example 137, N-(1,2,3,5,6,7-hexahydro-s-indacen-4-yl)-5-((6-methyl-2,6-diazaspiro[3.3]heptan-2-yl)sulfonyl)-4H-1,2,4-triazol-3-amine] | ≤ 0.5 µM | ≤ 0.5 µM
5 | CN1CC2CN(S(=O)(=O)c3nnc(Nc4c5c(cc6c4CCC6)CCC5)[nH]3)CC2C1 (stereo not drawn) [Example 138, N-(1,2,3,5,6,7-hexahydro-s-indacen-4-yl)-5-((5-methylhexahydropyrrolo[3,4-c]pyrrol-2 (1H)-yl)sulfonyl)-4H-1,2,4-triazol-3-amine] | ≤ 5 µM | ≤ 5 µM
6 | CN(C)C(=O)C1CCN(S(=O)(=O)c2nnc(Nc3c4c(cc5c3CCC5)CCC4)[nH]2)C1 (stereo not drawn) [Example 139, 1-((5-((1,2,3,5,6,7-hexahydro-s-indacen-4-yl)amino)-4H-1,2,4-triazol-3-yl)sulfonyl)-N,N-dimethylpyrrolidine-3-carboxamide] | ≤ 10 µM | ≤ 1 µM
7 | CN1CCCCC1CNS(=O)(=O)c1nnc(Nc2c3c(cc4c2CCC4)CCC3)[nH]1 (stereo not drawn) [Example 141, 5-((1,2,3,5,6,7-hexahydro-s-indacen-4-yl)amino)-N-((1-methylpiperidin-2-yl)methyl)-4H-1,2,4-triazole-3-sulfonamide] | ≤ 10 µM | ≤ 5 µM
8 | CCN(CC)C[C@@H]1CCN(S(=O)(=O)c2nnc(Nc3c4c(cc5c3CCC5)CCC4)[nH]2)C1 [Example 143, (S)-5-((3-((diethylamino)methyl)pyrrolidin-1-yl)sulfonyl)-N-(1,2,3,5,6,7-hexahydro-s-indacen-4-yl)-4H-1,2,4-triazol-3-amine] | ≤ 0.5 µM | ≤ 0.5 µM
9 | CCN(CC)C[C@H]1CCN(S(=O)(=O)c2nnc(Nc3c4c(cc5c3CCC5)CCC4)[nH]2)C1 [Example 144, (R)-5-((3-((diethylamino)methyl)pyrrolidin-1-yl)sulfonyl)-N-(1,2,3,5,6,7-hexahydro-s-indacen-4-yl)-4H-1,2,4-triazol-3-amine] | ≤ 0.5 µM | ≤ 0.5 µM
10 | O=S(=O)(c1nnc(Nc2c3c(cc4c2CCC4)CCC3)[nH]1)N1CC2(CCOCC2)C1 [Example 145, 5-(7-oxa-2-azaspiro[35]nonan-2-ylsulfonyl)-N-(1,2,3,5,6,7-hexahydro-s-indacen-4-yl)-4H-1,2,4-triazol-3-amine] | ≤ 5 µM | ≤ 1 µM
11 | O=S(=O)(c1nnc(Nc2c3c(cc4c2CCC4)CCC3)[nH]1)N1CC2(CCOC2)C1 [Example 146, 5-(6-oxa-2-azaspiro[3.4]octan-2-ylsulfonyl)-N-(1,2,3,5,6,7-hexahydro-s-indacen-4-yl)-4H-1,2,4-triazol-3-amine] | ≤ 10 µM | ≤ 5 µM
12 | CN(C)C[C@@H]1CCN(S(=O)(=O)c2nnc(Nc3c4c(cc5c3CCC5)CCC4)[nH]2)C1 [Example 147, (S)-5-((3-((dimethylamino)methyl)pyrrolidin-1-yl)sulfonyl)-N-(1,2,3,5,6,7-hexahydro-s-indacen-4-yl)-4H-1,2,4-triazol-3-amine] | ≤ 0.5 µM | ≤ 0.5 µM
13 | CN(C)C[C@H]1CCN(S(=O)(=O)c2nnc(Nc3c4c(cc5c3CCC5)CCC4)[nH]2)C1 [Example 148, (R)-5-((3-((dimethylamino)methyl)pyrrolidin-1-yl)sulfonyl)-N-(1,2,3,5,6,7-hexahydro-s-indacen-4-yl)-4H-1,2,4-triazol-3-amine] | ≤ 0.5 µM | ≤ 0.5 µM
14 | CN(C)CC1CN(S(=O)(=O)c2nnc(Nc3c4c(cc5c3CCC5)CCC4)[nH]2)CCO1 (stereo not drawn) [Example 149, 5-((2-((dimethylamino)methyl)morpholino)sulfonyl)-N-(1,2,3,5,6,7-hexahydro-s-indacen-4-yl)-4H-1,2,4-triazol-3-amine] | ≤ 5 µM | ≤ 1 µM
15 | O=S(=O)(c1nnc(Nc2c3c(cc4c2CCC4)CCC3)[nH]1)N1CC2(CNC2)C1 [Example 150, 5-(2,6-Diazaspiro[33]heptan-2-ylsulfonyl)-N-(1,2,3,5,6,7-hexahydro-s-indacen-4-yl)-4H-1,2,4-triazol-3-amine] | ≤ 5 µM | ≤ 5 µM
16 | CC(C)(O)C1CN(S(=O)(=O)c2nnc(Nc3c4c(cc5c3CCC5)CCC4)[nH]2)C1 [Example 151, 2-(1-((5-((1,2,3,5,6,7-hexahydro-s-indacen-4-yl)amino)-4H-1,2,4-triazol-3-yl)sulfonyl)azetidin-3-yl)propan-2-ol] | ≤ 5 µM | ≤ 5 µM
17 | CC(C)c1cc(F)cc(-c2ccncc2)c1Oc1nnc(S(=O)(=O)N2CCC(CN(C)C)C2)[nH]1 (stereo not drawn) [Example 152, 1-(1-((5-(4-fluoro-2-isopropyl-6-(pyridin-4-yl)phenoxy)-4H-1,2,4-triazol-3-yl)sulfonyl)pyrrolidin-3-yl)-N,N-dimethylmethanamine] | ≤ 5 µM | ≤ 5 µM
18 | O=S(=O)(c1nnc(Nc2c3c(cc4c2CCC4)CCC3)[nH]1)c1ccccc1F [Example 179, 5-((2-fluorophenyl)sulfonyl)-N-(1,2,3,5,6,7-hexahydro-s-indacen-4-yl)-4H-1,2,4-triazol-3-amine] | ≤ 10 µM | ≤ 1 µM
19 | COc1cc(-c2cc(C#N)c3c(c2Nc2nnc(S(=O)(=O)c4ccccc4)[nH]2)CCC3)ccn1 [Example 192, 6-(2-methoxypyridin-4-yl)-7-((5-(phenylsulfonyl)-4H-1,2,4-triazol-3-yl)amino)-2,3-dihydro-1H-indene-4-carbonitrile] | ≤ 5 µM | ≤ 1 µM
20 | [2H]C([2H])([2H])Oc1cc(-c2ccc3c(c2Nc2nnc(S(=O)(=O)N4CC5(CCN(C)C5)C4)[nH]2)CCO3)ccn1 [Example 195, N-(5-(2-(methoxy-d)pyridin-4-yl)-2,3-dihydrobenzofuran-4-yl)-5-((6-methyl-2,6-diazaspiro[3-4]octan-2-yl)sulfonyl)-4H-1,2,4-triazol-3-amine] | ≤ 0.5 µM | ≤ 0.5 µM
21 | [2H]C([2H])([2H])Oc1cc(-c2ccc3c(c2Nc2nnc(S(=O)(=O)N4CC5(CCN(C)C5)C4)[nH]2)CCC3)ccn1 [Example 196, N-(5-(2-(methoxy-d)pyridin-4-yl)-2,3-dihydro-1H-inden-4-yl)-5-((6-methyl-2,6-diazaspiro[3.4]octan-2-yl)sulfonyl)-4H-1,2,4-triazol-3-amine] | ≤ 0.5 µM | ≤ 0.5 µM
